Data published in US10329302B2, “Bicyclic-fused heteroaryl or aryl compounds” (Pfizer Inc., priority 2014, dated 2019).
pIC50: −log10 of the molar value.

Assays:
[1] = biological target: human IRAK4 FL (Full Length) (Homo sapiens (Human), UniProt Q9NWZ3); assay: IRAK4 Enzymatic DELFIA Assay, Protocol A; assay type: biochemical; settings: human IRAK4 FL, 0.6 mM ATP (KM); read-out: IRAK4 DELFIA Protocol A IC50
[2] = system: R848-induced TNFα production by human peripheral blood mononuclear cells (PBMCs); assay: R848 Induced TNFα in Human PBMC Assay; assay type: cell-based; settings: Homo sapiens, PBMC, 3 h, read-out: R848-induced TNFa PBMC IC50 (nM)
Description: R848 Induced TNFα in Human PBMC Assay.
This protocol is for R848-induced TNFα production by human peripheral blood mononuclear cells (PBMCs). […] The assay is used to assess cell-based potency of small molecule inhibitors of IRAK4 in the absence of serum.
The PBMCs in the interphase layer were collected and washed with PBS via centrifugation multiple times until the supernatant is clear. The purified PBMCs were re-suspended in RPMI (Roswell Park Memorial Institute) media (Sigma-Aldrich).
For the assay, a compound dilution plate containing a top concentration of 4 mM compound in DMSO was serially diluted 4-fold for 11 times. 250 nL of the compound dilution plate was spotted into a 384-well, flat bottom with lid, TC-treated, black with clear bottom, sterile, polystyrene plate (Corning Life Sciences).
10 μL of anti-TNFα antibody labeled with MSD SULFO-TAG at 50 μg/mL was added to each well and allowed to incubate overnight at 4° C.

[3] = biological target: human IRAK4 kinase domain (aa 154-460) (Homo sapiens (Human), UniProt Q9NWZ3); assay: IRAK4 Enzymatic DELFIA Assay, Protocol B; assay type: biochemical; settings: human IRAK4 kinase domain (aa 154-460), 0.6 mM ATP (KM); read-out: IRAK4 DELFIA Protocol B IC50
Description: IRAK4 Enzymatic DELFIA Assay, Protocol B.

serum TNF = assay: In Vivo Mouse LPS/D-Gal Challenge Model; settings: oral
Description: In Vivo Mouse LPS/D-Gal Challenge Model.
Efficacy of IRAK4 compounds of the present invention was also evaluated in an in vivo mouse model of endotoxin induced (Lipopolysaccharide (LPS)) inflammation. See: S. Copeland, H. W. Warren, S. F. Lowry, S. E. Calvano, and D. Remick, Clin. Diagn. Lab. Immnol. 2005, 12(1), 60-67. An exemplary protocol for this in vivo model follows.
Female C57/BL6 mice, 8 to 10 weeks old, are orally administered either vehicle or formulated IRAK-4 compound 1 hour prior to the challenge. Vehicle or IRAK4 compound is administered by oral gavage at a volume of 10 mL/kg. One hour post oral delivery of vehicle or compound, the animals are challenged with an intraperitoneal injection (IP) of a solution containing 1 μg/mL LPS and 80 mg/mL D-gal. Each mouse is injected with […] of the solution, for a final challenge dose of 100 ng LPS and 8 mg D-gal. Ninety minutes post LPS/D-gal challenge, animals are euthanized and blood collected. Blood is allowed to clot at room temperature and serum is separated by centrifugation and stored at −80° C. for analysis. Serum TNF and IL-6 are measured by Meso Scale Discovery (MSD) multiplex platform.
The groups consisted of N=10 animals/group. Naïve animals and vehicle control groups were run with each study. Mean cytokine data was plotted and students T-test was performed to calculate significance (t-test, p<0.05 vs. vehicle) of IRAK4 treated group vs. vehicle treated group. Percent inhibition of cytokine induction was calculated for IRAK4 treated group vs. vehicle treated group.
Table 4 contains data from multiple studies with columns for Compound, Dose in mg/kg (mpk) and % inhibition of serum TNF. In cases where doses of certain compounds were repeated in multiple experiments, the average percent inhibition of TNF and standard deviation is shown in the table.

Female Lewis rats = assay: In Vivo Rat Collagen-Induced Arthritis Model; settings: for days on which hind paw swelling was significantly reduced (t-test, p<0.05 vs. vehicle): CIA Lewis rats, paw volume by plethysmograph
Description: In Vivo Rat Collagen-Induced Arthritis Model.
Efficacy of IRAK4 compounds of the present invention was also evaluated in a rat in vivo model of rheumatoid arthritis (M. Hegen, J. C. Keith, Jr, M. Collins, C. L. Nickerson-Nutter, Ann. Rheum. Dis. 2008, 67, 1505-1515). An exemplary protocol for this in vivo model follows.
Female Lewis rats, approximately 7 weeks old, were immunized with an emulsion of type II collagen (CII) and incomplete Freund's adjuvant (IFA) on day 0 and received a boost of CII/IFA on day 7. Hind paw volume increase was taken by plethysmograph. Animals were randomly enrolled into treatment groups based on the development of disease. Beginning on day 11 post immunization, rats were enrolled into random treatment groups based on an increase in a single hind paw volume compared to day 7 post immunization baseline measurements.
Ten rats were enrolled per treatment group with the exception of the naive control group, which contained two rats. Day 0 was designated as the first treatment day, and paw measurements are taken daily by plethysmograph. The rats were weighed on a daily basis.
IRAK4 inhibitors are efficacious in the Lewis rat model of collagen-induced arthritis.

Sequence of human IRAK4 kinase domain (aa 154-460) (Q9NWZ3 154-460): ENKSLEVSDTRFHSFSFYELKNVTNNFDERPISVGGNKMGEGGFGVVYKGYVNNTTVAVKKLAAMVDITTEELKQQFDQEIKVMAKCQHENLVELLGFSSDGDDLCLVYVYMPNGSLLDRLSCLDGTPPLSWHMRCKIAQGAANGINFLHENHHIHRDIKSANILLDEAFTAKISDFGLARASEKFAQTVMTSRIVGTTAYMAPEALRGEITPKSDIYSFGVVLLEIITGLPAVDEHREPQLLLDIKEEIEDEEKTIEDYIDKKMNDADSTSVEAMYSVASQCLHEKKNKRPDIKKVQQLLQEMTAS
Sequence of human IRAK4 FL (Full Length) (Q9NWZ3 whole entry): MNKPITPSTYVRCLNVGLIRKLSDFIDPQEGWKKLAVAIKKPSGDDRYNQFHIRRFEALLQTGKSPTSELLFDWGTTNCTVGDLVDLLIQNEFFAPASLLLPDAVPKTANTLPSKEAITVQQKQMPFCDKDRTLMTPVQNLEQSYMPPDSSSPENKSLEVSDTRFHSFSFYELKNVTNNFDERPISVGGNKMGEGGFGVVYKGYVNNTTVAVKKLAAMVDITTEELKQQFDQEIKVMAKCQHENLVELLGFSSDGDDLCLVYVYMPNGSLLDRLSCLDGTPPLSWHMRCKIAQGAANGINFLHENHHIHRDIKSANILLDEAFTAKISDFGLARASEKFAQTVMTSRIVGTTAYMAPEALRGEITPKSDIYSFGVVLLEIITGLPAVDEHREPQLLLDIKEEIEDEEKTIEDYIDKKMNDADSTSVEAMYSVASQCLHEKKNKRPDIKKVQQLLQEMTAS

## CC(C)Oc1cc2c(OC[C@@H]3CCN3C(=O)CC#N)nccc2cc1C(N)=O [Example 73, 1-{[(2S)-1-(cyanoacetyl)azetidin-2-yl]methoxy}-7-(propan-2-yloxy)isoquinoline-6-carboxamide]
[1]
  pIC50: 5.36
[2]
  IC50: 1590 nM
[3]
  pIC50: 5.94

## COc1cc2c(OC[C@H]3NC(=O)[C@@H](F)[C@H]3C)nccc2cc1C(N)=O [Example 189, 1-{[(2S,3S,4S)-4-fluoro-3-methyl-5-oxopyrrolidin-2-yl]methoxy}-7-methoxyisoquinoline-6-carboxamide]
[2]
  IC50: 12 nM
Serum TNF; Dose 30 mpk
  % inhib TNF: 40%

## COc1cc2c(OC[C@@H]3C[C@](C)(F)C(=O)N3)cccc2cc1C(N)=O [Example 194, 5-{[(2S,4S)-4-fluoro-4-methyl-5-oxopyrrolidin-2-yl]methoxy}-3-methoxynaphthalene-2-carboxamide]
[1]
  pIC50: 9.00
[2]
  IC50: 5.2 nM
Serum TNF; Dose 30 mpk
  % inhib TNF: 76%

## Cc1ccc(-n2nc(C(C)(C)C)cc2NC(=O)Nc2ccc(OCCN3CCOCC3)c3ccccc23)cc1 [BIRB796]
Female Lewis rats; 30 mg/kg PO, QD, positive control (p38 inhibitor)
  days on which hind paw swelling was significantly reduced (t-test, p<0.05 vs. vehicle): Day 1-Day 8

## COc1cc2c(OC[C@@H]3CCC(=O)N3)cccc2cc1C(N)=O [Example 173, 3-methoxy-5-{[(2S)-5-oxopyrrolidin-2-yl]methoxy}naphthalene-2-carboxamide]
Serum TNF; Dose 30 mpk
  % inhib TNF: 55%
Serum TNF; Dose 100 mpk
  % inhib TNF: 98%

## CC(C)Oc1cc2c(OC[C@@H]3CCC(=O)N3)nccc2cc1C(N)=O [Example 26, 1-{[(2S)-5-oxopyrrolidin-2-yl]methoxy}-7-(propan-2-yloxy)isoquinoline-6-carboxamide]
Female Lewis rats; 10 mg/kg PO, BID
  hind paw swelling in CIA rats: transiently significant reduction in hind paw swelling only on Day 5 and Day 6 post treatment
Female Lewis rats; 30 mg/kg PO, BID, therapeutic treatment for 8 days
  days on which hind paw swelling was significantly reduced (t-test, p<0.05 vs. vehicle): Day 2-Day 8
Female Lewis rats; 100 mg/kg PO, BID, therapeutic treatment for 8 days
  days on which hind paw swelling was significantly reduced (t-test, p<0.05 vs. vehicle): Day 1-Day 8 (end)
Female Lewis rats; therapeutic treatment BID daily for 8 days, t-test p<0.05 vs. vehicle
  hind paw swelling in CIA rats: reduced the hind paw swelling in CIA rats significantly
Serum TNF; Dose 10 mpk
  % inhib TNF: 27 (±19) %
Serum TNF; Dose 30 mpk
  % inhib TNF: 41 (±17) %
Serum TNF; Dose 100 mpk
  % inhib TNF: 78 (±23) %

## CC(C)Oc1cc2c(OCC3(C)CCNCC3)ccnc2cc1C(N)=O [Example 56, 4-[(4-methylpiperidin-4-yl)methoxy]-6-(propan-2-yloxy)quinoline-7-carboxamide]
[3]
  pIC50: 5.83

## CC(C)Oc1cc2c(OC[C@H]3CCN(C(=O)CC#N)C3)nccc2cc1C(N)=O [Example 66, 1-{[(3S)-1-(cyanoacetyl)pyrrolidin-3-yl]methoxy}-7-(propan-2-yloxy)isoquinoline-6-carboxamide]
[3]
  pIC50: 6.59
